Source: patent US20240366567A1, “PHARMACEUTICAL COMBINATIONS COMPRISING A KRAS G12C INHIBITOR AND USES THEREOF FOR THE TREATMENT OF CANCERS” (NOVARTIS AG, priority 2021, published 2024)

How the values were obtained:
[1] = system: KRAS G12C, PIK3CA and CDKN2A-mutated LU99 xenograft; test: LU99 xenograft, single agent and double, triple, quadruple combinations (Example 8); type: in vivo, mice; conditions: 7.5 mg/kg daily
[2] = system: KRAS G12C and CDKN2A-mutated LU99 xenograft; test: LU99 xenograft, Compound A with ribociclib (Example 7); type: in vivo; conditions: LU99 xenograft in mice

Row | SMILES | effect on tumor growth compared to the vehicle group [1] | effect on tumor growth [2]
1 | C[C@@H]1OCC2(CCN(c3cnc(Sc4ccnc(N)c4Cl)c(N)n3)CC2)[C@@H]1N [TNO155, (3S,4S)-8-(6-amino-5-((2-amino-3-chloropyridin-4-yl)thio)pyrazin-2-yl)-3-methyl-2-oxa-8-azaspiro[4.5]decan-4-amine, reference compound] | did not have any effect on tumor growth | –
2 | CN(C)C(=O)c1cc2cnc(Nc3ccc(N4CCNCC4)cn3)nc2n1C1CCCC1 [ribociclib, reference compound] | – | did not have any effect on tumor growth
